# According to US20140315972A1, “RS)-2-(2-oxo-4-phenylpyrrolidin-1-yl)acetamide compound having modulatory activity with a commensurate effect, pharmaceutical substance (variants) and its application, composition (variants) thereof” (priority 2011, published 2014):
# Read-outs that look alike come from different tables or passages of the source. Marks after values point to notes of the source that are not given here.
# Columns and labels:
# Type in all cases: in vivo
# rats = test: Locomotor activity in Opto-varimex, HEF and LEF rats
# Text: (RS)-2-(2-oxo-4-phenylpyrrolidin-1-yl)acetamide has a psychomodulatory activity with the commensurate effect on motor activity of rats.
# mice = test: Apomorphine verticalization (positive symptoms of schizophrenia); conditions: for Intensity of verticalization in points: mice, apomorphine 2 mg/kg s.c.
# Method: Studies have been conducted on white outbred male mice (18-24 g), in comparison with the olanzapine (Zyprexa) with intraperitoneal injection.
# In the model of positive symptoms of schizophrenia associated with hyperactivation of the dopamine systems, which allows to identify the ability of substances to block the dopaminergic transmission in the mesolimbic system of the brain, Phenotropil (100, 200, and 300 mg/kg) reduced the apomorphine-induced (2 mg/kg subcutaneously) verticalization intensity scores (Table 4) by 45%, by 2.0 and 2.6 times, respectively.
# [1] = Distribution by internal organs after oral administration (GLC); conditions: rats, 100 mg/kg orally; for concentration at 0.25 h / concentration at 0.5 h / concentration at 1 h / concentration at 1.5 h / concentration at 2 h / concentration at 4 h / concentration at 6 h / concentration at 8 h: both sexes, outbred white, rat, po; for concentration at 0.5 h: 0.50 h; for concentration at 1.5 h: 1.50 h
# Method: The degree of tropism of the compound in various organs by quantitative content varies and is arranged in descending order as follows: liver, kidneys, heart, and brain. Rapid penetration into the brain confirms the good kinetic ability to penetrate through the blood-brain barrier. In 15 minutes, its presence is detected in the brain, heart, liver and kidneys. In the brain, liver and kidneys, the maximum concentration is achieved in an hour, and 6 hours after oral administration the compound is not detectable any more. […] The maximum concentration of Phenotropil in the myocardium is detected later than in the brain, but it is eliminated from the myocardium also two hours later. In the liver, the maximum concentration is found after an hour and then the concentration is gradually decreasing. One hour after administration, the concentration in the kidneys reaches the maximum, with a gradual decrease further on.
# cAMP = cAMP level in blood plasma of mice; conditions: for increase of cAMP level: mice, 60 minutes before test; for cAMP level: mouse blood plasma, one hour after a single injection
# MDA = MDA (lipid peroxidation) in saliva after topical course; conditions: human saliva after topical course treatment, 100 mg per 100 ml water
# Text: Studies of the effects of Phenotropil on condition of paradontium, enamel and dentin with topic application involved men and women (45-54 years) diagnosed with periodontitis, parodontosis and caries. Enrollment of groups by separate indicators in this age failed. In the vast majority of subjects, the diseases were combined. The gender ratio in groups was: 30.0% men and 70.0% women, the ratio of smokers to non-smokers 60:40, the number of female smokers was higher than male smokers by 35.0%. All patients received every three days the required amount of 0.1%, 0.2% or 0.3% solution of Phenotropil or placebo. The solutions were applied daily as dental trays (for 30 sec.) in the morning and evening at 30 ml per application for 30 days. Food and drinks intake, including water, were not recommended for 2 hours after the procedure. All patients underwent a dental check-up and standard hygienic treatment with removing plaque and dental scale and lavaging the gingival pockets with 1% Phenotropil solution. For each subject, the studied parameters were recorded; the aggregate integral indicator of the general periodontal condition of enamel and dentin was calculated, in the negative scores. The examinations were conducted once a week throughout the period of monotherapy. […]
# [2] = brain, read-out: Contents of Phenotropil in brain
# [3] = heart, read-out: Contents of Phenotropil in heart
# [4] = kidney, read-out: Contents of Phenotropil in kidney
# [5] = liver, read-out: Contents of Phenotropil in liver
structure (smiles),measurement,setting,value
"NC(=O)CN1CC(c2ccccc2)CC1=O (racemic) [Compound 1, (RS)-2-(2-oxo-4-phenylpyrrolidine-1-yl)acetamide]",locomotor activity vs control,"rats; HEF rats, 5 mg/kg i.g., 0-5 min",−0.06%
same,locomotor activity vs control,"rats; HEF rats, 5 mg/kg i.g., 5-10 min",+7.36% *
same,locomotor activity vs control,"rats; HEF rats, 5 mg/kg i.g., 10-15 min",−7.36%
same,locomotor activity vs control,"rats; HEF rats, 5 mg/kg i.g., 15-20 min",−96.53% *
same,locomotor activity vs control,"rats; HEF rats, 5 mg/kg i.g., 20-25 min",−103.15% *
same,locomotor activity vs control,"rats; HEF rats, 5 mg/kg i.g., 25-30 min",+207.1% *
same,locomotor activity vs control,"rats; HEF rats, 10 mg/kg i.g., 0-5 min",−4.2%
same,locomotor activity vs control,"rats; HEF rats, 10 mg/kg i.g., 5-10 min",−8.4%
same,locomotor activity vs control,"rats; HEF rats, 10 mg/kg i.g., 10-15 min",−3.73%
same,locomotor activity vs control,"rats; HEF rats, 10 mg/kg i.g., 15-20 min",+7.44%
same,locomotor activity vs control,"rats; HEF rats, 10 mg/kg i.g., 20-25 min",−4.72%
same,locomotor activity vs control,"rats; HEF rats, 10 mg/kg i.g., 25-30 min",0%
same,locomotor activity vs control,"rats; HEF rats, 10 mg/kg i.g., accumulated, listed as Phenotropil, 10 mg/kg",−4.23%
same,locomotor activity vs control,"rats; LEF rats, 5 mg/kg i.g., 0-5 min",+15.0% *
same,locomotor activity vs control,"rats; LEF rats, 5 mg/kg i.g., 5-10 min",+6.18%
same,locomotor activity vs control,"rats; LEF rats, 5 mg/kg i.g., 10-15 min",+9.74%
same,locomotor activity vs control,"rats; LEF rats, 5 mg/kg i.g., 15-20 min",+29.1% *
same,locomotor activity vs control,"rats; LEF rats, 5 mg/kg i.g., 20-25 min",+2.1%
same,locomotor activity vs control,"rats; LEF rats, 5 mg/kg i.g., 25-30 min",+10.0% *
same,locomotor activity vs control,"rats; LEF rats, 10 mg/kg i.g., 0-5 min",+4.31%
same,locomotor activity vs control,"rats; LEF rats, 10 mg/kg i.g., 5-10 min",+11.31% *
same,locomotor activity vs control,"rats; LEF rats, 10 mg/kg i.g., 10-15 min",+27.85%
same,locomotor activity vs control,"rats; LEF rats, 10 mg/kg i.g., 15-20 min",+7.23 * %
same,locomotor activity vs control,"rats; LEF rats, 10 mg/kg i.g., 20-25 min",+14.39% *
same,locomotor activity vs control,"rats; LEF rats, 10 mg/kg i.g., 25-30 min",+3.75%
same,locomotor activity vs control,"rats; population (normal) rats, 5 mg/kg i.g., 0-5 min",+18.06% *
same,locomotor activity vs control,"rats; population (normal) rats, 5 mg/kg i.g., 5-10 min",−5.95%
same,locomotor activity vs control,"rats; population (normal) rats, 5 mg/kg i.g., 10-15 min",−13.03% *
same,locomotor activity vs control,"rats; population (normal) rats, 5 mg/kg i.g., 15-20 min",−22.55% *
same,locomotor activity vs control,"rats; population (normal) rats, 5 mg/kg i.g., 20-25 min",+50.76% *
same,locomotor activity vs control,"rats; population (normal) rats, 5 mg/kg i.g., 25-30 min",+50.97% *
same,locomotor activity vs control,"rats; population (normal) rats, 5 mg/kg i.g., accumulated",+4.28% *
same,locomotor activity vs control,"rats; population (normal) rats, 10 mg/kg i.g., 0-5 min",+38.8% *
same,locomotor activity vs control,"rats; population (normal) rats, 10 mg/kg i.g., 5-10 min",−5.78%
same,locomotor activity vs control,"rats; population (normal) rats, 10 mg/kg i.g., 10-15 min",+5.56%
same,locomotor activity vs control,"rats; population (normal) rats, 10 mg/kg i.g., 15-20 min",+42.91 * %
same,locomotor activity vs control,"rats; population (normal) rats, 10 mg/kg i.g., 20-25 min",+95.6% *
same,locomotor activity vs control,"rats; population (normal) rats, 10 mg/kg i.g., 25-30 min",−91.47% *
same,locomotor activity vs control,"rats; population (normal) rats, 10 mg/kg i.g., accumulated",+18.0% *
same,reduction of verticalization intensity,mice; 1 mg/kg,26%
same,reduction of verticalization intensity,mice; 10 mg/kg,66.5%
same,reduction of verticalization intensity,mice; 100 mg/kg,45%
same,reduction of verticalization intensity,mice; 200 mg/kg,2.0 times
same,reduction of verticalization intensity,mice; 300 mg/kg,2.6 times
same,Intensity of verticalization in points,mice; 100 mg/kg i.p.,27 ± 8.7 points
same,Intensity of verticalization in points,mice; 200 mg/kg i.p.,25 ± 5.1 points
same,Intensity of verticalization in points,mice; 300 mg/kg i.p.,19 ± 5.1 points
same,concentration at 0.25 h,[1]; [2],1600 ± 200 ng/g
same,concentration at 0.5 h,[1]; [2],2000 ± 300 ng/g
same,concentration at 1 h,[1]; [2],6400 ± 800 ng/g
same,concentration at 1.5 h,[1]; [2],4000 ± 600 ng/g
same,concentration at 2 h,[1]; [2],1200 ± 300 ng/g
same,concentration at 4 h,[1]; [2],400 ± 200 ng/g
same,concentration at 0.25 h,[1]; [3],3700 ± 600 ng/g
same,concentration at 0.5 h,[1]; [3],7900 ± 900 ng/g
same,concentration at 1 h,[1]; [3],10100 ± 1000 ng/g
same,concentration at 1.5 h,[1]; [3],14300 ± 1300 ng/g
same,concentration at 2 h,[1]; [3],12600 ± 1200 ng/g
same,concentration at 4 h,[1]; [3],8400 ± 1000 ng/g
same,concentration at 6 h,[1]; [3],4400 ± 800 ng/g
same,concentration at 0.25 h,[1]; [4],33200 ± 3400 ng/g
same,concentration at 0.5 h,[1]; [4],37500 ± 4000 ng/g
same,concentration at 1 h,[1]; [4],55700 ± 5800 ng/g
same,concentration at 1.5 h,[1]; [4],50400 ± 6000 ng/g
same,concentration at 2 h,[1]; [4],37200 ± 4100 ng/g
same,concentration at 4 h,[1]; [4],28000 ± 3200 ng/g
same,concentration at 6 h,[1]; [4],16000 ± 2100 ng/g
same,concentration at 8 h,[1]; [4],10100 ± 1300 ng/g
same,concentration at 0.25 h,[1]; [5],25600 ± 2400 ng/g
same,concentration at 0.5 h,[1]; [5],30100 ± 4300 ng/g
same,concentration at 1 h,[1]; [5],75800 ± 8200 ng/g
same,concentration at 1.5 h,[1]; [5],67700 ± 7100 ng/g
same,concentration at 2 h,[1]; [5],59600 ± 5400 ng/g
same,concentration at 4 h,[1]; [5],30200 ± 3400 ng/g
same,concentration at 6 h,[1]; [5],17700 ± 2100 ng/g
same,concentration at 8 h,[1]; [5],11400 ± 1600 ng/g
same,"time after which compound is not detectable (brain, liver and kidneys as printed)",[1],6 h
same,time of complete elimination from the heart,[1],8 h
same,"time of first detection in brain, heart, liver and kidneys",[1],15 min
same,"time of maximum concentration in brain, liver and kidneys",[1],in an hour
same,time of maximum concentration in the heart,[1],1 hour 50 minutes
same,increase of cAMP level,cAMP; single i.p. 10 mg/kg,21%
same,increase of cAMP level,cAMP; single i.p. 50 mg/kg,65.5%
same,increase of cAMP level,cAMP; single i.p. 100 mg/kg,96.3%
same,cAMP level,cAMP; 10 mg/kg,4.56 ± 0.67 pikomol/50 μl plasma
same,cAMP level,cAMP; 50 mg/kg,6.24 ± 0.81 pikomol/50 μl plasma
same,cAMP level,cAMP; 100 mg/kg,7.40 ± 0.62 pikomol/50 μl plasma
same,MDA content,MDA,0.026 ± 0.0415 nmol/L
